Key:
Type in all cases: in vivo
[1] = tested on: Pcca−/−(A138T) mouse model of propionic acidemia; assay: Blood ammonia levels in mouse model of propionic acidemia; conditions: chow with 225 ppm PZ-2891 plus 1000 ppm Pan for 7 days vs 1000 ppm Pan alone; p=0.0032
Description: Referring to FIG. 2, a mouse model of propionic acidemia, the Pcca−/−(A138T) (Guensel et al. (2013) Mol. Ther. 21: 1316-1323), was fed chow containing either 1000 ppm pantothenate (Pan) or 225 ppm PZ-2891 plus 1000 ppm Pan for 7 days. Blood was drawn from 6 mice per group and blood ammonia levels were determined using a GM7 Micro-Stat Analyser (Analox Instruments, www.analox.com) and the Analox Blood Ammonia Reagent kit according to the manufacturer's instructions. Statistical analysis was performed using the Students unpaired t-test and p=0.0032.

[2] = tested on: Pcca−/−(A138T) mouse model of propionic acidemia; assay: Total liver CoA levels in Pcca mouse model; conditions: chow with 1000 ppm pantothenate plus 75 ppm PZ-3022 from day 21, measured at 70 days
Description: Referring to FIG. 4, a mouse model of propionic acidemia, the Pcca−/−(A138T) mouse (Guensel et al. (2013) Mol. Ther. 21: 1316-23) was fed chow or chow containing 1000 ppm pantothenate plus 75 ppm PZ-3022 beginning at day 21. At 70 days, the liver CoA levels were measured.

[3] = tested on: Pcca−/−(A138T) mouse model of propionic acidemia; assay: Liver CoA, acetyl-CoA and propionyl-CoA levels in Pcca mouse model; conditions: chow with 1000 ppm pantothenate plus 75 ppm PZ-3022 from day 21, measured at 70 days
Description: Referring to FIG. 5, a mouse model of propionic acidemia, the Pcca−/−(A138T) (mouse Guensel et al. (2013) Mol. Ther. 21: 1316-23) was fed chow or chow containing 1000 ppm pantothenate plus 75 ppm PZ-3022 beginning at day 21. At 70 days, the liver CoA, acetyl-CoA and propionyl-CoA levels were measured. The Pcca mice had lower free CoA, lower acetyl-CoA and very elevated propionyl-CoA compared to wild-type.

[4] = tested on: Pcca−/−(A138T) mouse model of propionic acidemia; assay: Plasma acyl-carnitine levels in Pcca mouse model; conditions: chow with 1000 ppm pantothenate plus 75 ppm PZ-3022 from day 21, plasma at 70 days
Description: Referring to FIG. 6A and FIG. 6B, a mouse model of propionic acidemia, the Pcca−/−(A138T) (mouse Guensel et al. (2013) Mol. Ther. 21: 1316-23) was fed chow or chow containing 1000 ppm pantothenate plus 75 ppm PZ-3022 beginning at day 21. At 70 days, the plasma was analyzed for the levels of acyl-carnitines.
Referring to FIG. 7, the data in FIG. 5 are presented as the C3:C2 ration of plasma carnitines.

Row | SMILES | blood ammonia levels [1] | liver CoA levels (total) [2] | liver acetyl-CoA [3] | liver free CoA [3] | liver propionyl-CoA [3] | C3:C2 ratio of plasma carnitines [4] | plasma acetyl-carnitine [4]
1 | CC(C)c1ccc(CC(=O)N2CCN(c3ccc(C#N)nn3)CC2)cc1 [PZ-2891] | Reduction of Blood Ammonia Levels |  |  |  |  |  | 
2 | N#Cc1ccc(N2CCN(C(=O)Cc3ccc(C4CC4)cc3)CC2)nn1 [PZ-3022] |  | the CoA levels were elevated | elevated free CoA and acetyl-CoA | elevated free CoA | propionyl-CoA was reduced | reduced the highly elevated C3:C2 ratio | elevated acetyl-carnitine

From US11547709B2, “Methods of treating disorders associated with castor” (ST. JUDE CHILDREN'S RESEARCH HOSPITAL, INC., priority 2017, dated 2023)
